Laboratory results taken from patent US7531541B2, “Partial mGluR5 antagonists for treatment of anxiety and CNS disorders” (Vanderbilt University, priority 2005, dated 2009).
“And” between values parts separate entries of the source, which are not always exact repeats. Identical values can stand only once.

Assays:
[1] = target: T1, rat mGluR5 (allosteric MPEP site) (Rattus norvegicus, UniProt P31424); test: [3H]methoxyPEPy radioligand binding assay, membranes of HEK293A cells stably expressing rat mGluR5; details: for Ki: 2 nM [3H]methoxyPEPy, 60 min room temperature, rat mGluR5 HEK293A membranes, read-out: Ki, displacement of [3H]methoxyPEPy binding; for inhibition of binding of [3H]methoxyPEPy to mGluR5 membranes: extent of displacement, in words
T1 construct: expressed in transfected cells
Experimental: FIG. 3. […] Samples were filtered through glass fiber filters and washed extensively. […] Concentration response curves were generated from the means of three separate experiments. Error bars represent SEM.
Membranes were prepared from HEK293A cells stably expressing rat mGluR5. Compounds were diluted into assay buffer (50 mM Tris/0.9% NaCl, pH 7.4) to a 5× stock and 20 μL test compound added to each well of a 96 well assay plate. 60 μL aliquots of membranes diluted in assay buffer (10 μg/well) were added to each well. 20 μL [3H]methoxyPEPy (2 nM final concentration in assay buffer) was added and the reaction incubated at room temperature for 60 min with shaking. After the incubation period, the membrane-bound ligand was separated from free ligand by filtration through glass-fiber 96 well filter plates (Unifilter-96, GF/B by Perkin Elmer). The contents of each well was transferred simultaneously to the filter plate and washed 4 times with assay buffer (Brandel Cell Harvester). 30 μL scintillation fluid was added to each well and the membrane-bound radioactivity determined by scintillation counting (TopCount by Perkin-Elmer).

mGluR5 [2] = target: T2, mGluR5 (Rattus norvegicus, UniProt P31424); test: Calcium fluorescence assay (FDSS) in rat cortical astrocytes; format: cell-based; details: for effect on glutamate concentration response curve: 10 μM (maximally effective) compound, range of glutamate concentrations; for effect on glutamate-induced calcium response: 10 μM compound, 5 min; for effect on glutamate-induced calcium response / maximal reduction of the response to glutamate / antagonist activity across a range of concentrations / IC50: nearly maximal glutamate; for maximal inhibition relative to that of MPEP: % of maximal inhibition by MPEP; for block of MPEP-induced inhibition of the glutamate response: compound added 1 min before; for rightward shift of concentration response curve compared to MPEP: antagonism of mGluR5-mediated calcium increase; for activation of mGluR5 when added alone: compound alone; for maximal reduction of the response to glutamate: concentration response; for IC50: read-out: IC50 at inhibiting mGluR5 receptor responses; for potentiation of response to suboptimal glutamate: DFB 30 μM, CDPPB 3 μM
T2 construct: they provide a native system that endogenously expresses high levels of mGluR5; endogenous in cells; host or cells: primary (secondary-culture) rat cortical astrocytes from Sprague Dawley pups
Experimental: Metabotropic glutamate receptor 5induced phosphorylation of extracellular signal-regulated kinase in astrocytes depends on transactivation of the epidermal growth factor receptor. J Neurosci 21:9619-28). In brief, neocortices from 2-4 day old Sprague Dawley rat pups were dissected and dissociated in DMEM by trituration with 1 ml pipette tips. The cells were then centrifuged and resuspended in DMEM (containing 1 mM sodium pyruvate, 2 mM L-glutamine, PenStrep) supplemented with 10% FBS in T75 tissue culture flasks; the medium was changed the next day. Cell cultures were maintained at 37° C. in an atmosphere of 95% air/5% CO2 for 6-8 days. Cells were shaken overnight (280-310 rpm) to remove oligodendrocytes and microglia.
Secondary astrocytes were trypsinzed and replated into poly-D-Lysine coated 384 well plates (Greiner) at 10K cells/well in 20 μL growth medium (DMEM containing 10% FBS, 20 mM HEPES, 2 mM L-glutamine and antibiotic/antimycotic). The second day the medium was changed to growth medium and G-5 supplement (Invitrogen) containing EGF (10 ng/ml), basic fibroblast growth factor (5 ng/ml), insulin (5 μg/ml), and other factors. The cells were nearly confluent within 2 days and resembled the polygonal astrocytic appearance in vivo. The fourth day, approximately 20 hours before experiments, the medium was changed to glutamine free DMEM containing 5% dialyzed FBS, 20 mM HEPES and antibiotic/antimycotic. On day five medium was removed from the plate and the cells incubated with 20 μL of 1 μM Fluo-4AM (Molecular Probes) in assay buffer (Hank's balanced salt solution, 20 mM HEPES and 2.5 mM Probenecid) for 1 h at 37° C. Dye was removed and 20 μL assay buffer was added. Ca2+ flux was measured using the Functional Drug Screening System (FDSS6000 by Hamamatsu).
Compounds were diluted into assay buffer to a 5× stock which was applied to the cells. For neutral measurements, cells were preincubated with the test compounds for 1 min, potentiator or antagonist was added, and the cells incubated for an additional 5 min. Cells were then stimulated for 2 min with an appropriate concentration of glutamate. For potentiator and antagonist measurements, cells were preincubated with the test compounds for 5 min and then stimulated for 2 min with an appropriate concentration of glutamate. Data were collected at ¼ Hz during the preincubation period and at 1 Hz during the glutamate addition phase of the experiment.
Raw data were normalized in a three step process: (1) Cell number and non-uniform illumination/imaging were controlled for based on the initial readings for the well, (2) the signal amplitude for the data point immediately preceding the agonist addition was subtracted from each point on the trace, (3) data were normalized to the maximal response for each experiment. Concentration response curves were generated using Prism 4.0 (GraphPad).

[3] = test system: mGluR5 receptor responses in STN neurons; test: Whole-cell electrophysiology in STN neurons of rat midbrain slices (DHPG-induced depolarization); format: cell-based
mGluR5 [4] = target: T3, mGluR5 (Homo sapiens, UniProt P41594); details: recombinant CHO cells, Published US Application 2001/0056084; cited from earlier work
T3 construct: host or cells: CHO cells transfected with mGluR5 (earlier work)

[5] = 5MPEP 3, 10, 30 μM on MPEP concentration response

T2 sequence (P31424 21-1203): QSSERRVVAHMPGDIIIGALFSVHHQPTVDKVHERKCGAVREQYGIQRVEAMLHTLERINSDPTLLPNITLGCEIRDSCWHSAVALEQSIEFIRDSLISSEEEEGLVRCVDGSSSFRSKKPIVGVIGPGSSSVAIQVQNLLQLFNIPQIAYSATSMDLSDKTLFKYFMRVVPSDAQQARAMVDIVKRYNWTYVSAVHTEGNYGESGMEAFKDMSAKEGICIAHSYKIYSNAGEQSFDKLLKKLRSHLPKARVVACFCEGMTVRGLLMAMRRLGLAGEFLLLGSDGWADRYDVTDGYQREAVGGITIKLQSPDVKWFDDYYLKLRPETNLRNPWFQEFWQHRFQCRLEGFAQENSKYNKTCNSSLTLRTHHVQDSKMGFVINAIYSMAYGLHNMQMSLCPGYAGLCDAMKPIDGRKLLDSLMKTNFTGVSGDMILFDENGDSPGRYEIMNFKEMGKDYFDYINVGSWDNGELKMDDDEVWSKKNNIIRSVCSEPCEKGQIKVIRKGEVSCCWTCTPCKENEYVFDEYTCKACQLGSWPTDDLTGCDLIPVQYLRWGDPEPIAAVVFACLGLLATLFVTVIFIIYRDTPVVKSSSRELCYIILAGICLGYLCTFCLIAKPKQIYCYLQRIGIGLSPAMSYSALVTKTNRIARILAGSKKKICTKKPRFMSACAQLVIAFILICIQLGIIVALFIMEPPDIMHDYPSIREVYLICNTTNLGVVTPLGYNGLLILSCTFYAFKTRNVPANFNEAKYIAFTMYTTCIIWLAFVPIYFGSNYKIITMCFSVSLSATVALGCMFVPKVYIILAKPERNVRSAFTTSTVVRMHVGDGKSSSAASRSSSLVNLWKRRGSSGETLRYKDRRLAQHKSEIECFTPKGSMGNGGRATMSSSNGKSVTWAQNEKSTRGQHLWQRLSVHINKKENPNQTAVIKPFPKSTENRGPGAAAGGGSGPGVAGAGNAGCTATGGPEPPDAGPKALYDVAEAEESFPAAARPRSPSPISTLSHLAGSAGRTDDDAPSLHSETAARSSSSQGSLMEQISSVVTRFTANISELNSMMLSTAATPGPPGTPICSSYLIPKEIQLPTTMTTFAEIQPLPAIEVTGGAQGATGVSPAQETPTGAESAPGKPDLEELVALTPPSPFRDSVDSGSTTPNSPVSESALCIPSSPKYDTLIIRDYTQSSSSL
T1 sequence (P31424 21-1203): as above
T3 sequence (P41594 21-1212): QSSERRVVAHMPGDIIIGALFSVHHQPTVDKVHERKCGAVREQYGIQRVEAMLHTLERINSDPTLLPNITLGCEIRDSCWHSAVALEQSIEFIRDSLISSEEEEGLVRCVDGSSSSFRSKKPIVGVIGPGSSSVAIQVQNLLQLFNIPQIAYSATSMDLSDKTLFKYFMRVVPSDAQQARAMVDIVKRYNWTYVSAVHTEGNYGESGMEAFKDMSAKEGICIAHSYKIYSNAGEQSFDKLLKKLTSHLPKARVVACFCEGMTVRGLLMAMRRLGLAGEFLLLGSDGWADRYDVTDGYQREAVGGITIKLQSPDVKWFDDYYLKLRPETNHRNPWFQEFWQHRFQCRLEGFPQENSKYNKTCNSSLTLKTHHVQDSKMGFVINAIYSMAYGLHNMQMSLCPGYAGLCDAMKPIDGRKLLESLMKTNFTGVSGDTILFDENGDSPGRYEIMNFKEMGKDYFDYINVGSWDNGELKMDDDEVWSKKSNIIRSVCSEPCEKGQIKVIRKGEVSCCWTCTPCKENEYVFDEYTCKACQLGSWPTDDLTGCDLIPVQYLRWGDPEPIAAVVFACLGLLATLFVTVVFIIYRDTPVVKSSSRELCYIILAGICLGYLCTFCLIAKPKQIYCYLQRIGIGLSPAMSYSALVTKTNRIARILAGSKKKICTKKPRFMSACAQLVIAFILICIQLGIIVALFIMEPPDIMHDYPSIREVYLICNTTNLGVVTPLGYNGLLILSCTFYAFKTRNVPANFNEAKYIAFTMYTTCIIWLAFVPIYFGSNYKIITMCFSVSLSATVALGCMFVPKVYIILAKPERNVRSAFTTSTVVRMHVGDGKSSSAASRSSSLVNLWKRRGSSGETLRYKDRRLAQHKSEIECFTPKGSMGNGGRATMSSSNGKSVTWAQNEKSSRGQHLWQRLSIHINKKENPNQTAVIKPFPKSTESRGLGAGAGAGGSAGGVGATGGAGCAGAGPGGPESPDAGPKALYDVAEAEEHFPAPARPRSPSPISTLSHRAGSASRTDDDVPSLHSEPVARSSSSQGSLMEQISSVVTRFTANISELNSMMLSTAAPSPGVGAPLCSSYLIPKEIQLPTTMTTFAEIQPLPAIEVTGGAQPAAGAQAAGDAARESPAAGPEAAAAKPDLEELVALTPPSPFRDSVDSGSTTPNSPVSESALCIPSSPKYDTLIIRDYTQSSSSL

Molecule: 3-(6-Methylpyridin-2-ylethynyl)-5-bromopyridine [Br-5MPEPy]
- Ki [1]: 182 ± 50 nM
- inhibition of binding of [3H]methoxyPEPy to mGluR5 membranes [1]: fully inhibited
- effect on glutamate concentration response curve (mGluR5 [2]): rightward and partial downward shift
- effect on glutamate-induced calcium response (mGluR5 [2]): partially inhibited
- maximal inhibition relative to that of MPEP (mGluR5 [2]): approximately 50%
- block of MPEP-induced inhibition of the glutamate response (mGluR5 [2]; MPEP 50 nM): only partially blocked
- rightward shift of concentration response curve compared to MPEP (mGluR5 [2]): approximately 10 fold
- activation of mGluR5 when added alone (mGluR5 [2]): do not partially activate
- maximal reduction of the response to glutamate (mGluR5 [2]): approximately 50%
- antagonist activity across a range of concentrations (mGluR5 [2]): partial antagonist activity
- IC50 (mGluR5 [2]): ~300 nM

Molecule: Cc1ccc(C#Cc2ccccc2)nc1 [5MPEP, 5-methyl-2-phenylethynyl-pyridine, reference compound]
- DHPG-induced depolarization in presence of CDPPB and 5MPEP [3]: 7.05±0.82 mV
- DHPG-induced depolarization in presence of MPEP and 5MPEP [3]: 14.28±2.1 mV
- effect on membrane potential of STN neurons [3]: no effect
- inhibition of mGluR5 receptor responses (mGluR5 [4]): completely inactive
- effect on glutamate-induced calcium response (mGluR5 [2]): no inhibitory effect
- effect on mGluR5 response to glutamate alone (mGluR5 [2]; 5MPEP 30 μM, suboptimal glutamate): does not alter
- block of allosteric potentiator responses to DFB and CDPPB (mGluR5 [2]; 5MPEP 30 μM, DFB 30 μM or CDPPB 3 μM, suboptimal glutamate): completely blocks
- Schild regression slope, 5MPEP versus MPEP (mGluR5 [2]; [5]): 1.076±0.0094 and 1.076±0.01
- Schild x-intercept (mGluR5 [2]; [5]): −6.249
- block of MPEP-induced inhibition of the glutamate response (mGluR5 [2]; MPEP 50 nM): fully blocked
- Ki (mGluR5 [2]; extrapolated from Schild regression, read-out: Ki from Schild analysis (x-intercept)): 560 nM

Molecule: N#Cc1cccc(C(=O)Nc2cc(-c3ccccc3)nn2-c2ccccc2)c1 [CDPPB, 3-cyano-N-(I,3-diphenyl-1 H-pyrazol-5-yl)benzamide, reference compound]
- DHPG-induced depolarization in presence of CDPPB ([3]; DHPG 10 μM + CDPPB 10 μM): 13.39±1.66 mV
- potentiation of response to suboptimal glutamate (mGluR5 [2]): potentiated

Molecule: Fc1cccc(C=NN=Cc2cccc(F)c2)c1 [DFB, 3,3′-di fluorobenzaldazine, reference compound]
- potentiation of response to suboptimal glutamate (mGluR5 [2]): potentiated

Molecule: N[C@H](C(=O)O)c1cc(O)cc(O)c1 [DHPG]
- depolarization of STN neurons ([3]; DHPG 10 μM alone (submaximal)): 6.89 ± 1.22 mV
- depolarization of STN neurons ([3]; DHPG 100 μM alone, TTX 500 nM): 14.82 ± 2.21 mV

Molecule: COc1cccc(C#Cc2ccc(C)cn2)c1 [M-5MPEP, 2-(3-Methoxyphenylethynyl)-5-methylpyridine]
- Ki [1]: 145 nM
- inhibition of binding of [3H]methoxyPEPy to mGluR5 membranes [1]: fully inhibited
- effect on glutamate concentration response curve (mGluR5 [2]): rightward and partial downward shift
- effect on glutamate-induced calcium response (mGluR5 [2]): partially inhibited
- maximal inhibition relative to that of MPEP (mGluR5 [2]): approximately 50%
- block of MPEP-induced inhibition of the glutamate response (mGluR5 [2]; MPEP 50 nM): only partially blocked
- rightward shift of concentration response curve compared to MPEP (mGluR5 [2]): approximately 10 fold
- activation of mGluR5 when added alone (mGluR5 [2]): do not partially activate
- maximal reduction of the response to glutamate (mGluR5 [2]): approximately 50%
- antagonist activity across a range of concentrations (mGluR5 [2]): partial antagonist activity
- IC50 (mGluR5 [2]): ~300 nM

Molecule: Cc1cccc(C#Cc2ccccc2)n1 [MPEP, 2-methyl-6-(phenylethynyl)-pyridine, reference compound]
- DHPG-induced depolarization in presence of MPEP ([3]; DHPG 100 μM + MPEP 10 μM): 6.15+0.82 mV
- effect on glutamate-induced calcium response (mGluR5 [2]): fully blocked
- inhibition of calcium response to nearly maximal glutamate (mGluR5 [2]; MPEP 50 nM): robust inhibition

Molecule: Brc1ccc(C#Cc2ccccc2)nc1.Cl [YP260]
- partial antagonist activity (FIG. 11) (mGluR5 [2]; similarly to the figures above): partial activities
